pIC50: −log10 of the molar value.
Key:
BRSK1 = BRSK1 (Homo sapiens (Human), UniProt Q8TDC3); test: KINOMEscan scanMAX; assay type: binding; details: 2000 nM; read-out: Percent Control
MV4-11 cells = test: MV4-11-Luc proliferation assay (BLI); assay type: cell-based; details: Homo sapiens, MV4-11, 168 h; 7 days
Experimental: The anti-leukemic activity was evaluated with a MV4-11 assay. The population of MV4-11 cells, which depend on CDK8/19 for their proliferation, was made to express Luciferase and ZsGreen by lenvtiral infection with pHIV-Luc-ZsGreen, to enable leukemia growth analysis by bioluminescence imaging (BLI). The initial Luciferase-ZsGreen transduced cell population was sorted for ZsGreen positivity with fluorescence activated cell sorting. The MV4-11 assay was performed in 96-well plates by treating the MV4-11-Luc cells with testing compounds at different concentrations for 7 days, followed by BLI to quantify the effects of test articles on cell proliferation.

TRKA (NTRK1) = TRKA (NTRK1) (Homo sapiens (Human), UniProt P04629); test: KINOMEscan scanMAX; assay type: binding; details: 2000 nM; read-out: Percent Control
TRKA (NTRK1), sequence (P04629 33-796): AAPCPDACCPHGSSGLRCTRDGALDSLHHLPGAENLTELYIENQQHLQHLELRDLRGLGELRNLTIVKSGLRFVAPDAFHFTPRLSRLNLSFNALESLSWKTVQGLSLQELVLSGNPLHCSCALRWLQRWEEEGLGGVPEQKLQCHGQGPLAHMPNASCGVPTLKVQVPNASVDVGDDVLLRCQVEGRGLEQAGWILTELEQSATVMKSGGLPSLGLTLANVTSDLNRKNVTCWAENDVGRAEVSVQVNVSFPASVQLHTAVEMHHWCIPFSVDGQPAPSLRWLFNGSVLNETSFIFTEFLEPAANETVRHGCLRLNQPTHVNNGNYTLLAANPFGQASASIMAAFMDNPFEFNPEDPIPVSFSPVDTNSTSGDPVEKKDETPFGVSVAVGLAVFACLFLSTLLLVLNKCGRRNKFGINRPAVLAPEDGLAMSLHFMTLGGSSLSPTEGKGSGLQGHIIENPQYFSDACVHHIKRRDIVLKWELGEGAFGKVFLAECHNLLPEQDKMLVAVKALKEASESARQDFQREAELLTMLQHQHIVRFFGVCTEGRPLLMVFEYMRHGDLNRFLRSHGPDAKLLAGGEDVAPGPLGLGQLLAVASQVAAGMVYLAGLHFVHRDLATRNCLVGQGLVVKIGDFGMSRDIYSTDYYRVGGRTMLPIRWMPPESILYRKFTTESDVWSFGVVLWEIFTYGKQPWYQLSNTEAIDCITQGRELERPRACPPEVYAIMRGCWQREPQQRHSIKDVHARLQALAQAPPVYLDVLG

ROS1 = ROS1 (Homo sapiens (Human), UniProt P08922); test: KINOMEscan scanMAX; assay type: binding; details: 2000 nM; read-out: Percent Control
MYLK2 = MYLK2 (Homo sapiens (Human), UniProt Q9H1R3); test: KINOMEscan scanMAX; assay type: binding; details: 2000 nM; read-out: Percent Control
MKNK1 = MKNK1 (Homo sapiens (Human), UniProt Q9BUB5); test: KINOMEscan scanMAX; assay type: binding; details: 2000 nM; read-out: Percent Control
HPK1 (MAP4K1) = HPK1 (MAP4K1) (Homo sapiens (Human), UniProt Q92918); test: KINOMEscan scanMAX; assay type: binding; details: 2000 nM; read-out: Percent Control
PIK4CB (PI4KB) = PIK4CB (PI4KB) (Homo sapiens (Human), UniProt Q9UBF8); test: KINOMEscan scanMAX; assay type: binding; details: 2000 nM; read-out: Percent Control
CDC2L2 = CDC2L2 (Homo sapiens (Human), UniProt Q9UQ88); test: KINOMEscan scanMAX; assay type: binding; details: 2000 nM; read-out: Percent Control
HASPIN (GSG2) = HASPIN (GSG2) (Homo sapiens (Human), UniProt Q8TF76); test: KINOMEscan scanMAX; assay type: binding; details: 2000 nM; read-out: Percent Control
GRK3 (ADRBK2) = GRK3 (ADRBK2) (Homo sapiens (Human), UniProt P35626); test: KINOMEscan scanMAX; assay type: binding; details: 2000 nM; read-out: Percent Control
MTOR = MTOR (Homo sapiens (Human), UniProt P42345); test: KINOMEscan scanMAX; assay type: binding; details: 2000 nM; read-out: Percent Control
PRKG1 = PRKG1 (Homo sapiens (Human), UniProt Q13976); test: KINOMEscan scanMAX; assay type: binding; details: 2000 nM; read-out: Percent Control
PKAC-beta (PRKACB) = PKAC-beta (PRKACB) (Homo sapiens (Human), UniProt P22694); test: KINOMEscan scanMAX; assay type: binding; details: 2000 nM; read-out: Percent Control
[1] = system: NFκB-dependent promoter in CDK8/19 deficient (double-knockout) reporter cells; test: NFκB-dependent luciferase reporter assay, CDK8/19 double-knockout vs wild-type 293 cells; details: double-knockout vs parental reporter cells
Excerpt: The second cell-based assay measures the effects of CDK8/19 on the expression of firefly luciferase reporter from a NFκB-dependent promoter in 293 cells.

FLT3 = FLT3 (Homo sapiens (Human), UniProt P36888); test: KINOMEscan scanMAX; assay type: binding; details: 2000 nM; read-out: Percent Control
PRKD1 = PRKD1 (Homo sapiens (Human), UniProt Q15139); test: KINOMEscan scanMAX; assay type: binding; details: 2000 nM; read-out: Percent Control
PKMYT1 = PKMYT1 (Homo sapiens (Human), UniProt Q99640); test: KINOMEscan scanMAX; assay type: binding; details: 2000 nM; read-out: Percent Control
PKMYT1, sequence (Q99640 whole entry): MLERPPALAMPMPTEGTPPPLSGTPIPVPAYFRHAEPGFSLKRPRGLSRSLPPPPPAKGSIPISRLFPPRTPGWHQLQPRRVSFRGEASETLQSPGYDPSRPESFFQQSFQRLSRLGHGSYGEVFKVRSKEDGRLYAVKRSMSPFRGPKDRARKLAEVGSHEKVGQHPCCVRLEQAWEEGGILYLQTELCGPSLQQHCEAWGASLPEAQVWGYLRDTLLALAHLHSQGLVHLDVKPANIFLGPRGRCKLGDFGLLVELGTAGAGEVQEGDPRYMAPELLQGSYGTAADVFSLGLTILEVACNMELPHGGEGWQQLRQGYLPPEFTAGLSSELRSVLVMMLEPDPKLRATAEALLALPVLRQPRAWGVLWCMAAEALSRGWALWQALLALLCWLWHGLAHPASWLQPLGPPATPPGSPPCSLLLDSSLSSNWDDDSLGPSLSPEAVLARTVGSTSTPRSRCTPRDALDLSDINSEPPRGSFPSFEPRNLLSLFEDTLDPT

MLK3 (MAP3K11) = MLK3 (MAP3K11) (Homo sapiens (Human), UniProt Q16584); test: KINOMEscan scanMAX; assay type: binding; details: 2000 nM; read-out: Percent Control
ADCK4 = ADCK4 (Homo sapiens (Human), UniProt Q96D53); test: KINOMEscan scanMAX; assay type: binding; details: 2000 nM; read-out: Percent Control
CDK3 = CDK3 (Homo sapiens (Human), UniProt Q00526); test: KINOMEscan scanMAX; assay type: binding; details: 2000 nM; read-out: Percent Control
ERBB3 = ERBB3 (Homo sapiens (Human), UniProt P21860); test: KINOMEscan scanMAX; assay type: binding; details: 2000 nM; read-out: Percent Control
NEK11 = NEK11 (Homo sapiens (Human), UniProt Q8NG66); test: KINOMEscan scanMAX; assay type: binding; details: 2000 nM; read-out: Percent Control
NEK11, sequence (Q8NG66 whole entry): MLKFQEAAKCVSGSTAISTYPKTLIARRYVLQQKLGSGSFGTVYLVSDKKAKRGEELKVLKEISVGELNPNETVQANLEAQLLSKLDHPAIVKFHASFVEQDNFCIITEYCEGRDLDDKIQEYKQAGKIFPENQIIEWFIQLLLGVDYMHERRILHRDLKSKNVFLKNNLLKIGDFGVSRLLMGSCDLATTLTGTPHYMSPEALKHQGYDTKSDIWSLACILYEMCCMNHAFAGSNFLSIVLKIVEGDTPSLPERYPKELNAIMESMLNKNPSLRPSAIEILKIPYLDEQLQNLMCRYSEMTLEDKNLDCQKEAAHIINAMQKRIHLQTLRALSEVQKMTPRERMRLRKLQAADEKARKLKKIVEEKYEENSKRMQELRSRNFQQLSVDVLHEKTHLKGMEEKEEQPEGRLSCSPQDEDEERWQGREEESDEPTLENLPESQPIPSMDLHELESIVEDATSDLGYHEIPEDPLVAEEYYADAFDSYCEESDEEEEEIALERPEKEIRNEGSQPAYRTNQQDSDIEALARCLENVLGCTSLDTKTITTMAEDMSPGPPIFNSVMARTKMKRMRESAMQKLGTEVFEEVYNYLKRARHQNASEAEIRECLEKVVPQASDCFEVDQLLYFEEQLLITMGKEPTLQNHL

MLCK (MYLK3) = MLCK (MYLK3) (Homo sapiens (Human), UniProt Q32MK0); test: KINOMEscan scanMAX; assay type: binding; details: 2000 nM; read-out: Percent Control
MLCK (MYLK3), sequence (Q32MK0 whole entry): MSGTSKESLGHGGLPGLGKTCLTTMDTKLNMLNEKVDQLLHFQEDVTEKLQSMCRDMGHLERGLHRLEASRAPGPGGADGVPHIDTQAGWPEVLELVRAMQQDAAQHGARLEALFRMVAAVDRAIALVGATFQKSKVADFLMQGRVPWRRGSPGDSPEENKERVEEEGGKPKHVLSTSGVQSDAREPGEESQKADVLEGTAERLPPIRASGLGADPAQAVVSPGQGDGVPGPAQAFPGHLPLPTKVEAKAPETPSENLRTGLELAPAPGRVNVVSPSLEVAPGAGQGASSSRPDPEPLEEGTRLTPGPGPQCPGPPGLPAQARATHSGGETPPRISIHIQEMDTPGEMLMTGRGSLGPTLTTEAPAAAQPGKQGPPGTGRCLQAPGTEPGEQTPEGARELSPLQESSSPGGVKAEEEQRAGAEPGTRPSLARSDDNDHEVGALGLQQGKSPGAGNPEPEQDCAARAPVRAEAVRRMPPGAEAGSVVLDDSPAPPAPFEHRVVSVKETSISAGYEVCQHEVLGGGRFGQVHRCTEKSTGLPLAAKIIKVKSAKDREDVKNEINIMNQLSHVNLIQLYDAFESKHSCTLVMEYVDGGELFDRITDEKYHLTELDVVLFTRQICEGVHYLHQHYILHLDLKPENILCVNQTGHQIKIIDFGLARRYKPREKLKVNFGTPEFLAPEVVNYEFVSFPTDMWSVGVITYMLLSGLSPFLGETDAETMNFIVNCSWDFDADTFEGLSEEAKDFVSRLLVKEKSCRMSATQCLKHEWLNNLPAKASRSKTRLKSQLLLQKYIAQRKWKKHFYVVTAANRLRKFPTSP

[2] = target: EGFR(L747-S752del, P753S) (Homo sapiens (Human), UniProt P00533, DEL747-752/P753S); test: KINOMEscan scanMAX; assay type: binding; details: 2000 nM; read-out: Percent Control
EGFR(L747-S752del, P753S), sequence (P00533 other isoform, or with tags, fused parts or gaps P753S/del L747-S752): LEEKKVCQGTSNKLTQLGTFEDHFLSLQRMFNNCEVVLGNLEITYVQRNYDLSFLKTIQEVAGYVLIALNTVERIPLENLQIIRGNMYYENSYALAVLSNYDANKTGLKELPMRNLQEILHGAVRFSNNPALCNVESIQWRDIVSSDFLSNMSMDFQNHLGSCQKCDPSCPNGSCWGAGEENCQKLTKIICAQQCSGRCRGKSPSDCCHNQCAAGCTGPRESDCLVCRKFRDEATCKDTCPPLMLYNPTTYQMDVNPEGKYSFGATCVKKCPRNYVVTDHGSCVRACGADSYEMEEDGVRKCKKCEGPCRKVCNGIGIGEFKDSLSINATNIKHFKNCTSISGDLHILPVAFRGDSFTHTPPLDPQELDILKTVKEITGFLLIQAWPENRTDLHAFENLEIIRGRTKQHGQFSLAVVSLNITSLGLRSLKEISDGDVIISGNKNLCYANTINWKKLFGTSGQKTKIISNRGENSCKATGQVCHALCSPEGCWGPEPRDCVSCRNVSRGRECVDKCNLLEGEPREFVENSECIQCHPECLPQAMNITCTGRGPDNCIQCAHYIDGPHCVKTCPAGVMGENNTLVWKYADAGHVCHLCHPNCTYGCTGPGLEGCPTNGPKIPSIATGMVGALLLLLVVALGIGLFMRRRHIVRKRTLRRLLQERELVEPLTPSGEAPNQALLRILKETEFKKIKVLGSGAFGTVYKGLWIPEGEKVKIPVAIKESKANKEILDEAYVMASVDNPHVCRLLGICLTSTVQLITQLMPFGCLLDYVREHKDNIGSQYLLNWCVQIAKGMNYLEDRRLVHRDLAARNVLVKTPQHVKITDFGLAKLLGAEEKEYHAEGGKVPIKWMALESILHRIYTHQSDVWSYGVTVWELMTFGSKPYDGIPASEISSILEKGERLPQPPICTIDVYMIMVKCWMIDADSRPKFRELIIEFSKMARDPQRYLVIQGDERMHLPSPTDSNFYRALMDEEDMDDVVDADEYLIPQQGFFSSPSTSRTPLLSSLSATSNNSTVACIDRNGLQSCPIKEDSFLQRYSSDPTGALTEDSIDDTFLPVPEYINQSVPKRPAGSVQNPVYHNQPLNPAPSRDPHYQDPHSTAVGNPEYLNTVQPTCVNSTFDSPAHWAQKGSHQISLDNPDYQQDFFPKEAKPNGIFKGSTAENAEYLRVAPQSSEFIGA

PYK2 (PTK2B) = PYK2 (PTK2B) (Homo sapiens (Human), UniProt Q14289); test: KINOMEscan scanMAX; assay type: binding; details: 2000 nM; read-out: Percent Control
PIK3C2G = PIK3C2G (Homo sapiens (Human), UniProt O75747); test: KINOMEscan scanMAX; assay type: binding; details: 2000 nM; read-out: Percent Control
NEK2 = NEK2 (Homo sapiens (Human), UniProt P51955); test: KINOMEscan scanMAX; assay type: binding; details: 2000 nM; read-out: Percent Control
CDKL1 = CDKL1 (Homo sapiens (Human), UniProt Q00532); test: KINOMEscan scanMAX; assay type: binding; details: 2000 nM; read-out: Percent Control
CDKL1, sequence (Q00532 whole entry): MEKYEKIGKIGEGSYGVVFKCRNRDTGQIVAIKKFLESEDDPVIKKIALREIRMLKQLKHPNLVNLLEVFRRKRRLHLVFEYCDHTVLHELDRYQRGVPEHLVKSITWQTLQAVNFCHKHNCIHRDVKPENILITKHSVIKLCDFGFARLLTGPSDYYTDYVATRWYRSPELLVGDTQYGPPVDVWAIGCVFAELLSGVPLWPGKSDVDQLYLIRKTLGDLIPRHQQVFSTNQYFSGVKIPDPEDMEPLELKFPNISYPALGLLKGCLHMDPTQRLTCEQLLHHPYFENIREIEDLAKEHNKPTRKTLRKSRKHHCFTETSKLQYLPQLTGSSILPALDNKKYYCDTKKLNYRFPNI

PIP5K2C (PIP4K2C) = PIP5K2C (PIP4K2C) (Homo sapiens (Human), UniProt Q8TBX8); test: KINOMEscan scanMAX; assay type: binding; details: 2000 nM; read-out: Percent Control
MRCKB (CDC42BPB) = MRCKB (CDC42BPB) (Homo sapiens (Human), UniProt Q9Y5S2); test: KINOMEscan scanMAX; assay type: binding; details: 2000 nM; read-out: Percent Control
PCTK1 (CDK16) = PCTK1 (CDK16) (Homo sapiens (Human), UniProt Q00536); test: KINOMEscan scanMAX; assay type: binding; details: 2000 nM; read-out: Percent Control
PIK3CA(Q546K) = PIK3CA(Q546K) (Homo sapiens (Human), UniProt P42336, Q546K); test: KINOMEscan scanMAX; assay type: binding; details: 2000 nM; read-out: Percent Control
YANK2 (STK32B) = YANK2 (STK32B) (Homo sapiens (Human), UniProt Q9NY57); test: KINOMEscan scanMAX; assay type: binding; details: 2000 nM; read-out: Percent Control
CHEK2 = CHEK2 (Homo sapiens (Human), UniProt O96017); test: KINOMEscan scanMAX; assay type: binding; details: 2000 nM; read-out: Percent Control
CHEK2, sequence (O96017 whole entry): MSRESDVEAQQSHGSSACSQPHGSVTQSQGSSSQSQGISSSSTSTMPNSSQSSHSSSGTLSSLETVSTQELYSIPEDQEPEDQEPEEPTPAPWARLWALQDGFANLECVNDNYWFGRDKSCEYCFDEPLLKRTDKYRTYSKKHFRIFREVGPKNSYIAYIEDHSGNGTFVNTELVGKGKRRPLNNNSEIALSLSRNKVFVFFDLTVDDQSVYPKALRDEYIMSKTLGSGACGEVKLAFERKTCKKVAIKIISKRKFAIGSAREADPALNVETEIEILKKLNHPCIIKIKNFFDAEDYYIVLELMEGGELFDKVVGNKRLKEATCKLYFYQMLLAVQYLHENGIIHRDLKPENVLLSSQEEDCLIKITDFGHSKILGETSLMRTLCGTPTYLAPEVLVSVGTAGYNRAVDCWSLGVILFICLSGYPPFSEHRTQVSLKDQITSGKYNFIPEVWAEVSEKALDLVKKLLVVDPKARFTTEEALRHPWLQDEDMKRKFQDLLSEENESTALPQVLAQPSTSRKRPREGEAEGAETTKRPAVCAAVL

Question: For `CN1CCN(C(=O)c2ccc3cc(CCNc4ccnc5ccc(C#N)cc45)ccc3c2)CC1` [compound 6148, 4-((2-(6-(4-methylpiperazine-1-carbonyl)naphthalen-2-yl)ethyl)amino)quinoline-6-carbonitrile], which remaining binding at 2 µM (BRSK1) is on record?
Answer: 100%

Question: What about the pIC50 (MV4-11 cells) of the same compound?
Answer: 6.93

Question: What about the remaining binding at 2 µM (TRKA (NTRK1)) of the same compound?
Answer: 53%

Question: What about the remaining binding at 2 µM (ROS1) of the same compound?
Answer: 91%

Question: What about the remaining binding at 2 µM (MYLK2) of the same compound?
Answer: 91%

Question: And the remaining binding at 2 µM (MKNK1)?
Answer: 72%

Question: What about the remaining binding at 2 µM (HPK1 (MAP4K1)) of the same compound?
Answer: 94%

Question: And the remaining binding at 2 µM (PIK4CB (PI4KB))?
Answer: 51%

Question: What about the remaining binding at 2 µM (CDC2L2) of the same compound?
Answer: 97%

Question: And the remaining binding at 2 µM (HASPIN (GSG2))?
Answer: 29%

Question: And the remaining binding at 2 µM (GRK3 (ADRBK2))?
Answer: 73%

Question: What about the remaining binding at 2 µM (MTOR) of the same compound?
Answer: 79%

Question: And the remaining binding at 2 µM (PRKG1)?
Answer: 100%

Question: What about the remaining binding at 2 µM (PKAC-beta (PRKACB)) of the same compound?
Answer: 100%

Question: And the “IC50 in CDK8/19-deficient cells relative to wild-type cells” value [1]?
Answer: > 50 times

Question: And the remaining binding at 2 µM (FLT3)?
Answer: 89%

Question: And the remaining binding at 2 µM (PRKD1)?
Answer: 90%

Question: And the remaining binding at 2 µM (PKMYT1)?
Answer: 100%

Question: And the remaining binding at 2 µM (MLK3 (MAP3K11))?
Answer: 99%

Question: And the remaining binding at 2 µM (ADCK4)?
Answer: 97%

Question: And the remaining binding at 2 µM (CDK3)?
Answer: 86%

Question: And the remaining binding at 2 µM (ERBB3)?
Answer: 76%

Question: What about the remaining binding at 2 µM (NEK11) of the same compound?
Answer: 60%

Question: And the remaining binding at 2 µM (MLCK (MYLK3))?
Answer: 100%

Question: What about the remaining binding at 2 µM [2] of the same compound?
Answer: 98%

Question: And the remaining binding at 2 µM (PYK2 (PTK2B))?
Answer: 92%

Question: What about the remaining binding at 2 µM (PIK3C2G) of the same compound?
Answer: 57%

Question: What about the remaining binding at 2 µM (NEK2) of the same compound?
Answer: 100%

Question: And the remaining binding at 2 µM (CDKL1)?
Answer: 94%

Question: What about the remaining binding at 2 µM (PIP5K2C (PIP4K2C)) of the same compound?
Answer: 84%

Question: And the remaining binding at 2 µM (MRCKB (CDC42BPB))?
Answer: 100%

Question: And the remaining binding at 2 µM (PCTK1 (CDK16))?
Answer: 68%

Question: What about the remaining binding at 2 µM (PIK3CA(Q546K)) of the same compound?
Answer: 70%

Question: What about the remaining binding at 2 µM (YANK2 (STK32B)) of the same compound?
Answer: 89%

Question: And the remaining binding at 2 µM (CHEK2)?
Answer: 98%
